Measurements published in patent publication US20120028967A1 (priority 2009, published 2012).
pIC50: −log10 of the molar value. Where a name gives a salt, the structure may show the parent alone.

Target: α7-subtype of nicotinic receptors (Rattus norvegicus, UniProt Q05941)
Assay: biochemical
Type: binding

Sequence of α7-subtype of nicotinic receptors (Q05941 23-502): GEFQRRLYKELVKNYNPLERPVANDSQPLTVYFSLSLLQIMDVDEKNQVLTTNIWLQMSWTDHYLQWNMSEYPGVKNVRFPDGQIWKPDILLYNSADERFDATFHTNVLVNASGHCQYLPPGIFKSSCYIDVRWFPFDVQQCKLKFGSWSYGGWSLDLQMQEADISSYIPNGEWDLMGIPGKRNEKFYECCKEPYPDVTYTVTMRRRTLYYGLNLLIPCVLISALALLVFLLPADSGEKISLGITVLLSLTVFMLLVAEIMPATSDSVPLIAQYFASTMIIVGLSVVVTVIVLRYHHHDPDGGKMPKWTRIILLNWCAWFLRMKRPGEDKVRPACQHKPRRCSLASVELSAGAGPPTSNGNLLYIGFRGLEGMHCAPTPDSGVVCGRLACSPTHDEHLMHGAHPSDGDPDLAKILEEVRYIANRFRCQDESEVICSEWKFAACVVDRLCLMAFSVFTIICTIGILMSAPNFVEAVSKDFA

Row | Structure (SMILES) | pIC50
1 | Ic1cnc(N2CCN3CCC2CC3)nc1 [Compound 2, 4-(5-Iodopyrimidin-2-yl)-1,4-diazabicyclo[3.2.2]nonane fumaric acid salt] | 7.42
2 | Clc1cnc(N2CCN3CCC2CC3)nc1 [Compound 3, 4-(5-Chloropyrimidin-2-yl)-1,4-diazabicyclo[3.2.2]nonane fumaric acid salt] | 6.72
3 | Brc1cnc(N2CCN3CCC2CC3)nc1 [Compound 1, 4-(5-Bromo-pyrimidin-2-yl)-1,4-diaza-bicyclo[3.2.2]nonane fumaric acid salt] | 6.55
